# Where two headings read alike, the source gives them in different places.
# What was measured:
# Type in all cases: physicochemical
# [1] = Compressibility (tablet hardness, tensile strength); conditions: 80 mg, compressed at 10 kN
# Protocol: ENERPAC manual tablet press was used for compression. 80 mg of Form CSI and WO2014014835 Form A were weighed and added into the dies of a φ6 mm round tooling, compressed at 10 kN, then stored at room temperature for 24 h until complete elastic recovery. Hardness (H) was tested with an intelligent tablet hardness tester. Diameter (D) and thickness (L) were tested with a caliper. Tensile strength of the powder was calculated with the following formula: T=2H/πDL*9.8. Under a certain force, the greater the tensile strength, the better the compressibility.
# [2] = Kinetic solubility in SGF, FaSSIF, FeSSIF and water
# Excerpt: The parameters for kinetic solubility tests of the present disclosure are as follows:
# When solubility test is used to predict the in vivo performance of a drug, it is critical to simulate in vivo conditions as closely as possible. For oral medication, Simulated Gastric Fluid (SGF), Fasted-State Simulated Intestinal Fluid (FaSSIF), Fed-State Simulated Intestinal Fluid (FeSSIF) can be used to simulate the condition in vivo and predict the effects of feeding, thus solubility in such mediums is closer to that in vivo.
# 20 mg of Form CSI and 20 mg of WO2014014835 Form A were suspended into 4.0 mL of SGF, 4.0 mL of FaSSIF, 4.0 mL of FeSSIF and 4.0 mL of water to get saturated solutions. After equilibrated for 1 h, 4 h, 8 h and 24 h, the concentrations (μg/mL) of Compound I of the saturated solutions were measured by UPLC.
# [3] = Physical stability on grinding (XRPD); conditions: ground manually for 5 min in a mortar
# Protocol: Form CSI and WO2014014835 Form A was ground manually for 5 min in a mortar.
# [4] = Intrinsic dissolution (IDR); conditions: for IDR: slope of data within 5-120 minutes
# Protocol: The parameters for intrinsic dissolution tests in the present disclosure are as follows:
# Approximately 100 mg of Form CSI or WO2014014835 Form A was added into the cavity of the die, and then compressed at 10 kN and held for 0.5 minute to obtain a tablet having a surface area of 0.5 cm^2. The die with the tablet still embedded was put into a dissolution apparatus to test the intrinsic dissolution. The slope (in μg/min) of the regression line was calculated according to the data within 5-120 minutes. IDR (in μg/min/cm^2) was further calculated according to the slope.
# Hygroscopicity by DVS = conditions: for Weight gain under 80% RH: DVS, 25° C.
# Protocol: Dynamic Vapor Sorption (DVS) was measured via an SMS (Surface Measurement Systems Ltd.) intrinsic DVS instrument. Its control software is DVS-Intrinsic control software. Typical parameters for DVS test are as follows: Temperature: 25° C. Gas and flow rate: N2, 200 mL/min dm/dt: 0.002%/min RH range: 0% RH to 95% RH DVS was applied to test the hygroscopicity of Form CSI and WO2014014835 Form A with about 10 mg of samples. The weight gains at each relative humidity were recorded in a cycle of 0-95%-0 RH. XRPD test was applied before and after DVS. Description and definition of hygroscopicity (general notice 9103 drug hygroscopicity test guidelines in 2015 edition of Chinese Pharmacopoeia, test at 25° C.±1° C., 80% RH. The definition of hygroscopicity in the 9th European Pharmacopoeia 5.11 is similar to the Chinese Pharmacopoeia.).
smiles,measurement,setting,value
"Cc1nc(C(=O)NCC(=O)O)c(O)c2ccc(Oc3ccccc3)cc12 [WO2014014835 Form A, [(4-hydroxy-1-methyl-7-phenoxy-isoquinoline-3-carbonyl)-amino]-acetic acid, reference compound]",Tensile strength,[1]; T=2H/πDL*9.8,0.33 MPa
same,Hardness,"[1]; φ6 mm round tooling, after 24 h",0.67 kgf
same,Kinetic solubility (concentration of Compound I in saturated solution),"[2]; FaSSIF, 1 hour",241.2 µg/mL
same,solubility kinetic at 4 h,"[2]; FaSSIF, thermodynamic from solid, FaSSIF, 4 hours, read-out: Kinetic solubility (concentration of Compound I in saturated solution)",569 µg/mL
same,solubility kinetic at 8 h,"[2]; FaSSIF, thermodynamic from solid, FaSSIF, 8 hours, read-out: Kinetic solubility (concentration of Compound I in saturated solution)",567 µg/mL
same,solubility kinetic at 24 h,"[2]; FaSSIF, thermodynamic from solid, FaSSIF, 24 hours, read-out: Kinetic solubility (concentration of Compound I in saturated solution)",570 µg/mL
same,solubility kinetic at 1 h,"[2]; FeSSIF, thermodynamic from solid, FeSSIF, 1 hour, read-out: Kinetic solubility (concentration of Compound I in saturated solution)",146 µg/mL
same,solubility kinetic at 4 h,"[2]; FeSSIF, thermodynamic from solid, FeSSIF, 4 hours, read-out: Kinetic solubility (concentration of Compound I in saturated solution)",150 µg/mL
same,solubility kinetic at 8 h,"[2]; FeSSIF, thermodynamic from solid, FeSSIF, 8 hours, read-out: Kinetic solubility (concentration of Compound I in saturated solution)",161 µg/mL
same,solubility kinetic at 24 h,"[2]; FeSSIF, thermodynamic from solid, FeSSIF, 24 hours, read-out: Kinetic solubility (concentration of Compound I in saturated solution)",269 µg/mL
same,Kinetic solubility (concentration of Compound I in saturated solution),"[2]; SGF, 1 hour",3.6 µg/mL
same,Kinetic solubility (concentration of Compound I in saturated solution),"[2]; SGF, 4 hours",3.7 µg/mL
same,Kinetic solubility (concentration of Compound I in saturated solution),"[2]; SGF, 8 hours",3.7 µg/mL
same,Kinetic solubility (concentration of Compound I in saturated solution),"[2]; SGF, 24 hours",3.6 µg/mL
same,Kinetic solubility (concentration of Compound I in saturated solution),"[2]; water, 1 hour",4.7 µg/mL
same,Kinetic solubility (concentration of Compound I in saturated solution),"[2]; water, 4 hours",7.9 µg/mL
same,Kinetic solubility (concentration of Compound I in saturated solution),"[2]; water, 8 hours",8.4 µg/mL
same,Kinetic solubility (concentration of Compound I in saturated solution),"[2]; water, 24 hours",10.1 µg/mL
same,Crystalline form and crystallinity after grinding (XRPD),[3],decreases after grinding
same,Crystalline form and crystallinity after grinding (XRPD),[3]; listed as Form A,decreases after grinding
same,Cumulative dissolution,"[4]; pH4.5 PBS, 5 min, 37° C., 0.5 cm^2 tablet",19.9 µg
same,Cumulative dissolution,"[4]; pH4.5 PBS, 10 min",24.1 µg
same,Cumulative dissolution,"[4]; pH4.5 PBS, 15 min",28.7 µg
same,Cumulative dissolution,"[4]; pH4.5 PBS, 20 min",34.0 µg
same,Cumulative dissolution,"[4]; pH4.5 PBS, 25 min",36.6 µg
same,Cumulative dissolution,"[4]; pH4.5 PBS, 30 min",40.2 µg
same,Cumulative dissolution,"[4]; pH4.5 PBS, 45 min",49.1 µg
same,Cumulative dissolution,"[4]; pH4.5 PBS, 60 min",59.4 µg
same,Cumulative dissolution,"[4]; pH4.5 PBS, 90 min",80.0 µg
same,Cumulative dissolution,"[4]; pH4.5 PBS, 120 min",98.2 µg
same,IDR,[4]; pH4.5 PBS,1.3454 μg/min/cm^2
same,Cumulative dissolution,"[4]; pH6.8 PBS, 5 min, 37° C., 0.5 cm^2 tablet",439.4 µg
same,Cumulative dissolution,"[4]; pH6.8 PBS, 10 min",815.5 µg
same,Cumulative dissolution,"[4]; pH6.8 PBS, 15 min",1158.2 µg
same,Cumulative dissolution,"[4]; pH6.8 PBS, 20 min",1488.8 µg
same,Cumulative dissolution,"[4]; pH6.8 PBS, 25 min",1800.6 µg
same,Cumulative dissolution,"[4]; pH6.8 PBS, 30 min",2110.0 µg
same,Cumulative dissolution,"[4]; pH6.8 PBS, 45 min",2853.7 µg
same,Cumulative dissolution,"[4]; pH6.8 PBS, 60 min",3624.8 µg
same,Cumulative dissolution,"[4]; pH6.8 PBS, 90 min",5068.5 µg
same,Cumulative dissolution,"[4]; pH6.8 PBS, 120 min",6427.1 µg
same,IDR,[4]; pH6.8 PBS,102.8372 μg/min/cm^2
same,Weight gain under 80% RH,Hygroscopicity by DVS,0.21%
same,Weight gain under 80% RH,Hygroscopicity by DVS; listed as Form A,0.21%
same,Hygroscopicity class,Hygroscopicity by DVS; weight gain under 80% RH,slightly hygroscopic

# From patent US20220251044A1, “CRYSTAL FORM OF HYPOXIA-INDUCIBLE FACTOR-PROLYL HYDROXYLASE INHIBITOR” (CRYSTAL PHARMACEUTICAL (SUZHOU) CO., LTD., priority 2019, published 2022)
